Data taken from patent publication EP3917907B1, “MODULATORS OF POTASSIUM ION CHANNELS AND USES THEREOF” (Universitá Degli Studi Di Salerno, priority 2019, dated 2020).

Legend:
Kv7.2 = target: T1, Kv7.2 (Homo sapiens, UniProt O43526); test: Whole-cell patch-clamp on CHO cells transiently expressing Kv7.2; format: cell-based; details: CHO cells, mean±SEM, >1 activating, <1 inhibiting; for Idrug/Ictl at 0 mV: ratio of ramp-evoked Kv7.2 current amplitude in presence and absence of drug at 0 mV; for Idrug/Ictl at -40 mV: ratio of ramp-evoked Kv7.2 current amplitude in presence and absence of drug at -40 mV
T1 construct: expressed in transfected cells; host or cells: CHO cells (ATCC CRL-9618), transient transfection, pcDNA3.1(+)
Procedure: According to the experimental protocol, these plasmids were expressed individually or in combination (in particular of Kv7.2 and Kv7.3), together with a plasmid-expressing enhanced green fluorescent protein (Clontech, Palo Alto, CA) used as a transfection marker. Total cDNA in the transfection mixture was kept at 4 µg. CHO cells were grown in 100-mm plastic Petri dishes in Dulbecco's modified Eagle's medium containing 10% fetal bovine serum, nonessential amino acids (0.1 mM), penicillin (50 U/ml), and streptomycin ([…]) in a humidified atmosphere at 37°C with 5% CO2. The cells were plated on glass coverslips coated with poly-L-lysine, and transfected one day after plating with the appropriate cDNA using Lipofectamine 2000 (Life Technologies), according to the manufacturer's protocol.
Currents from CHO cells were recorded at room temperature (20-22°C) 24 hours after trasfection using the whole-cell configuration of the patch-clamp technique, with glass micropipettes of 3-5 MΩ resistance. During the recording, constant perfusion of extracellular solution was maintained. The extracellular solution contained (in mM): 138 NaCl, 2 CaCl2, 5.4 KCl, 1 MgCl2, 10 glucose, and 10 HEPES, at pH 7.4, adjusted with NaOH. The pipette (intracellular) solution contained (in mM): 140 KCl, 2 MgCl2, 10 EGTA, 10 HEPES, 5 Mg^2+-ATP, at pH 7.3-7.4, adjusted with KOH. Currents were recorded using an Axopatch-200A amplifier, filtered at 5 kHz, and digitized using a DigiData 1440A (Molecular Devices). The pCLAMP software (version 10.2, Molecular Devices) was used for data acquisition and analysis. To evaluate the activity of exemplary compounds on Kv7.2 (see Table 1), as well as on Kv7.1, Kv7.2/7.3, Kv7.3 and Kv7.4 channels for selected compounds (see Table 2), the cells were clamped at -80 mV and currents were elicited by 3-s voltage ramps from -80 mV to +20 mV in the presence and absence of each compound. […] The effects of drugs were expressed as shift in the ramp-voltage (ΔV) calculated at 20% of the maximal current (Miceli et al, Proc Natl Acad Sci U S A. 2013, 110(11):4386-91). Curves were fitted using the following equation: y=max/(1+x/EC50)n, where x is the drug concentration, n is the Hill coefficient and max is the maximal value achieved, as previously described (Ambrosino et al, Br J Pharmacol. 2013, 168(6):1430-1444). Data analysis and fit were performed using Sigmaplot (version 12.3).
Ramp-evoked Kv7.2 currents were analyzed by measuring the currents at -40 mV (a membrane potential value close to the activation threshold) and at 0 mV (a membrane potential value at which Kv7.2 conductance is largely saturated). In particular, -40 mV represents the threshold potential for spike initiation and 0 mV represents instead the membrane potential value at which maximal conductance of the channel is achieved.
In Table 1, the effect of exemplary compounds of the invention is expressed as the ratio between current amplitude in the presence (Idrug) and absence (Ictl) of the drug at these two membrane voltages. […]

[1] = Solution stability (HPLC, extracellular solution, ambient temperature); format: physicochemical; details: percentage of degradation after 6 h at ambient temperature; 100 ppm in extracellular solution pH 7.4
Procedure: (§1) In order to study the solution stability and photostability of the potassium channel modulators object of the present invention, a stock solution of the proper analyte (1 mg/mL) in dimethylsulfoxide (DMSO) has been prepared. This solution has been then diluted to a concentration of 100 ppm using extracellular solution containing (in mM): 138 NaCl, 2 CaCl2, 5.4 KCl, 1 MgCl2, 10 glucose, and 10 HEPES, at pH 7.4, adjusted with NaOH. To measure solution stability, the diluted solutions have been maintained at ambient temperature for 6 h. To measure photostability, the diluted solutions have been irradiated for 6 h using a Oriel Sol3A Solar Simulator (Newport corporation, Irvine, CA, USA) with a 12x12 inches output beam. Aliquots of solution have been withdrawn after 6h and analyzed by HPLC using a Kinetex C18, 150 mm × 4.6 mm × 2.6 µm (Phenomenex, Bologna, Italy) as stationary phase and a mobile phase constituted by A: H2O/CH3CN (80:20) and B: CH3CN. Gradient elution has been performed from 20% to 90% of B in 7.50 minutes and from 90% to 20% of B in 1 minute. The pump flux has been set to 1.5 mL/min. Column has been thermostatted at 40°C during analysis. Results are espressed in Table 3 as percentage of degradation of the product calculated as ratio between the peak area of the analyte at time 0 (Pa0) and after 6h (Pa6) using the following formula: % degradation = (Pa0−Pa6)/Pa0 *100. [formula]

[2] = Photostability (HPLC, solar simulator irradiation); format: physicochemical; details: percentage of degradation after 6 h irradiation with solar simulator; 100 ppm in extracellular solution pH 7.4
Procedure: as §1

Compound | Idrug/Ictl at 0 mV (Kv7.2) | Idrug/Ictl at -40 mV (Kv7.2) | Solution stability [1] | Photostability [2]
CC(C)(C)CNC(=N)Nc1ccc2c(c1)CCN2Cc1ccc(F)cc1 [1-(1-(4-fluorobenzyl)indolin-5-yl)-3-neopentylguanidine] | 0.84±0.09 | 0.98±0.09 | A (degradation lower than 20%) | B (20%< degradation<40%)
CC(C)(C)CNC(=S)Nc1ccc2c(c1)CCN2Cc1ccc(F)cc1 [1-(1-(4-fluorobenzyl)indolin-5-yl)-3-neopentylthiourea] | – | – | A (degradation lower than 20%) | B (20%< degradation<40%)
CC(C)(C)CNC(=O)Nc1ccc2c(c1)CCN2Cc1ccc(F)cc1 [1-(1-(4-fluorobenzyl)indolin-5-yl)-3-neopentylurea] | 1.40±0.08 | 3.31±0.61 | A (degradation lower than 20%) | A (degradation lower than 20%)
CC1(C)[C@H]2CC[C@]1(CS(=O)(=O)Nc1ccc3c(c1)CCN3Cc1ccc(F)cc1)C(=O)C2 [1-((1R,4S)-7,7-dimethyl-2-oxobicyclo[2.2.1]heptan-1-yl)-N-(1-(4-fluorobenzyl)indolin-5-yl)methanesulfonamide] | 1.16±0.07 | 1.49±0.28 | C (degradation > 40%) | C (degradation > 40%)
CC1(C)[C@@H]2CC[C@@]1(CS(=O)(=O)Nc1ccc3c(c1)CCN3Cc1ccc(F)cc1)C(=O)C2 [1-((1S,4R)-7,7-dimethyl-2-oxobicyclo[2.2.1]heptan-1-yl)-N-(1-(4-fluorobenzyl)indolin-5-yl)methanesulfonamide] | 0.99±0.06 | 1.12±0.05 | C (degradation > 40%) | C (degradation > 40%)
O=S(=O)(CC1CCCCC1)Nc1ccc2c(ccn2Cc2ccc(F)cc2)c1 [1-cyclohexyl-N-(1-(4-fluorobenzyl)-1H-indol-5-yl)methanesulfonamide] | – | – | A (degradation lower than 20%) | A (degradation lower than 20%)
CCc1cccc(S(=O)(=O)Nc2ccc(NCc3ccc(OC)cc3)cc2)c1 [3-ethyl-N-(4-((4-methoxybenzyl)amino)phenyl)benze nesulfonamide] | – | – | B (20%< degradation<40%) | C (degradation > 40%)
COc1ccc([C@@H](C)Nc2ccc(NS(=O)(=O)C3CCCCC3)cc2)cc1 [(R)-N-(4-((1-(4-methoxyphenyl)ethyl)amino)phenyl) cyclohexanesulfonamide] | – | – | B (20%< degradation<40%) | C (degradation > 40%)
COc1ccc([C@H](C)Nc2ccc(NS(=O)(=O)C3CCCCC3)cc2)cc1 [(S)-N-(4-((1-(4-methoxyphenyl)ethyl)amino)phenyl) cyclohexanesulfonamide] | – | – | B (20%< degradation<40%) | C (degradation > 40%)
O=C(Cn1ccc2cc(NS(=O)(=O)CC3CCCCC3)ccc21)c1ccc(Br)cc1 [N-(1-(2-(4-bromophenyl)-2-oxoethyl)-1H-indol-5-yl)-1-cyclohexylmethanesulfonamide] | – | – | A (degradation lower than 20%) | B (20%< degradation<40%)
O=C(Cc1ccc(Cl)cc1)n1ccc2cc(NS(=O)(=O)C3CCCCC3)ccc21 [N-(1-(2-(4-chlorophenyl)acetyl)-1H-indol-5-yl) cyclohexanesulfonamide] | – | – | A (degradation lower than 20%) | A (degradation lower than 20%)
Cc1cc2cc(NS(=O)(=O)C3CCCCC3)ccc2n1Cc1ccc(F)cc1N [N-(1-(2-amino-4-fluorobenzyl)-2-methyl-1H-indol-5-yl)cyclohexanesulfonamide] | – | – | A (degradation lower than 20%) | B (20%< degradation<40%)
O=S(=O)(Nc1ccc2c(ccn2Cc2ccc(C(F)(F)F)cc2O)c1)C1CCCCC1 [N-(1-(2-hydroxy-4-(trifluoromethyl)benzyl)-1H-indol-5-yl)cyclohexanesulfonamide] | – | – | A (degradation lower than 20%) | A (degradation lower than 20%)
O=S(=O)(Nc1ccc2c(c1)CCN2Cc1ccc(F)cc1)C1CCCCC1 [N-(1-(4-fluorobenzyl)indolin-5-yl)cyclohexanesulfonamide] | – | – | C (degradation > 40%) | C (degradation > 40%)
CCc1cn(Cc2ccc(C(F)(F)F)cc2)c2ccc(NS(=O)(=O)C3CCCCC3)cc12 [N-(3-ethyl-1-(4-(trifluoromethyl)benzyl)-1H-indol-5-yl) cyclohexanesulfonamide] | – | – | A (degradation lower than 20%) | A (degradation lower than 20%)
O=S(=O)(Nc1ccc(NCc2ccc(F)cc2)c(F)c1)C1CCCCC1 [N-(3-fluoro-4-((4-fluorobenzyl)amino)phenyl) cyclohexanesulfonamide] | 0.83±0.10 | 0.78±0.15 | – | –
Cc1cc2c(c(C)c1NS(=O)(=O)C1CCCCC1)CCN2Cc1ccc(C(F)(F)F)cc1 [N-(4,6-dimethyl-1-(4-(trifluoromethyl)benzyl)indolin-5-yl)cyclohexanesulfonamide] | – | – | A (degradation lower than 20%) | B (20%< degradation<40%)
COc1ccc(CN(C)c2ccc(NS(=O)(=O)C3CCCCC3)cc2)cc1 [N-(4-((4-methoxybenzyl)(methyl)amino)phenyl) cyclohexanesulfonamide] | – | – | B (20%< degradation<40%) | B (20%< degradation<40%)
COc1ccc(CNc2ccc(NS(=O)(=O)C3CCCCC3)cc2)cc1 [N-(4-((4-methoxybenzyl)amino)phenyl) cyclohexanesulfonamide] | – | – | B (20%< degradation<40%) | C (degradation > 40%)
Cc1c(NS(=O)(=O)C2CCCCC2)ccc2c1ccn2Cc1ccc(C(F)(F)F)cc1 [N-(4-methyl-1-(4-(trifluoromethyl)benzyl)-1H-indol-5-yl)cyclohexanesulfonamide] | – | – | A (degradation lower than 20%) | B (20%< degradation<40%)
O=S(=O)(Nc1cc(F)c2c(ccn2Cc2ccc(C(F)(F)F)cc2)c1)C1CCCCC1 [N-(7-fluoro-1-(4-(trifluoromethyl)benzyl)-1H-indol-5-yl) cyclohexanesulfonamide] | – | – | A (degradation lower than 20%) | A (degradation lower than 20%)
O=S(=O)(Nc1cc(F)c2c(c1)CCN2Cc1ccc(C(F)(F)F)cc1)C1CCCCC1 [N-(7-fluoro-1-(4-(trifluoromethyl)benzyl)indolin-5-yl) cyclohexanesulfonamide] | – | – | B (20%< degradation<40%) | B (20%< degradation<40%)
